Reference: patent publication US20250230173A1, “SALT FORMS OF AN AXL INHIBITOR” (Arcus Biosciences, Inc., priority 2023, published 2025)
Marks after values point to notes of the source that are not given here.

Legend:
Type in all cases: physicochemical
[1] = Stability of amorphous salt forms of Compound (I), HPLC purity loss on storage; settings: for HPLC Purity Loss on Day 14 (%): 14 days at 40° C., 75% RH; for HPLC Purity Loss (%): stored at RT for 10 days under ambient humidity (~75% RH), purity on day 3 minus purity on day 10
Experimental: (§1) HPLC analysis was performed with an Agilent HPLC 1260 series instrument.
The stability of various amorphous salt forms of Compound (I) was also assessed. The salt forms, in general, were prepared by suspending Compound (I) in a suitable solvent at ambient temperature and adding the corresponding acid to the mixture. The mixtures were allowed to stir until a solution was formed, filtered to remove any trace solids, and the resulting filtrate lyophilized to access the salts as solids. Characterization by XRPD established that all salt forms were amorphous. […]

[2] = Stability study of selected solid forms, XRPD after 7 days of storage
Source text: XRPD diffractograms were collected with a Bruker, D2 Phaser or Panalytical Empyrean X-ray diffractometer. Diffractograms can be read by one of skill in the art, for example, to determine if a chemical sample is the substantially the same, different, or represents a mixture of forms. When a diffractogram is “substantially in accordance” as another diffractogram, a person of skill in the art would regard the samples resulting in the two diffractograms as the same form or same mixture of forms, taking into account minor variations for instrumentation, conditions, and the like.
A stability study comparing amorphous freebase Compound I, Freebase Form II, 2-Napsylate Form I, Fumarate Form I, Succinate Form I, and Camsylate Form I was conducted. HPLC measurements were taken after 7 days of storage at the indicated conditions.

[3] = Stability study of selected solid forms, HPLC purity after 7 days of storage
[4] = Stability of freebase Compound (I) in amorphous form, HPLC purity on storage
Experimental: as §1
The stability of the freebase amorphous form of Compound (I), for example, as prepared in Example 1, was assessed by High Performance Liquid Chromatography (HPLC). […] Freebase Compound (I) in amorphous form was added to 5 separate vials. Each vial was sealed and stored for a period of 5 days at 20° C., 40° C., 60° C., 80° C., and 100° C., respectively. Purity was assessed by HPLC initially, and after 1, 3, and 5 days of storage.

[5] = 7 days, 2° C., listed as Amorphous Freebase
[6] = 7 days, 25° C., listed as Amorphous Freebase
[7] = 7 days, 40° C. / 75% RH, listed as Amorphous Freebase
[8] = T0, listed as Amorphous Freebase

SMILES: Cc1cccnc1-c1ccc(-c2n[nH]c3ncc(-c4ccc5c(c4)CC[C@@H](N4C6COCC4C6)CC5)cc23)nc1 [Benzene Sulfonic]
- HPLC Purity Loss on Day 14 (%) [1]: 3.4%

SMILES: Cc1cccnc1-c1ccc(-c2n[nH]c3ncc(-c4ccc5c(c4)CC[C@@H](N4C6COCC4C6)CC5)cc23)nc1 [Benzoate]
- HPLC Purity Loss (%) [1]: 3.0* %

SMILES: Cc1cccnc1-c1ccc(-c2n[nH]c3ncc(-c4ccc5c(c4)CC[C@@H](N4C6COCC4C6)CC5)cc23)nc1 [Succinate Form I]
- XRPD (solid form) ([2]; 7 days, 2° C.): Form I
- XRPD (solid form) ([2]; 7 days, 25° C.): Form I
- XRPD (solid form) ([2]; 7 days, 40° C. / 75% RH): Form I
- XRPD (solid form) ([2]; T0): Form I
- HPLC Purity (A %) ([3]; 7 days, 2° C.): 97.74 A %
- HPLC Purity (A %) ([3]; 7 days, 25° C.): 98.22 A %
- HPLC Purity (A %) ([3]; 7 days, 40° C. / 75% RH): 89.76 A %
- HPLC Purity (A %) ([3]; T0): 98.09 A %

SMILES: Cc1cccnc1-c1ccc(-c2n[nH]c3ncc(-c4ccc5c(c4)CC[C@@H](N4C6COCC4C6)CC5)cc23)nc1 [Fumarate Form I]
- XRPD (solid form) ([2]; 7 days, 2° C.): Form I
- XRPD (solid form) ([2]; 7 days, 25° C.): Form I
- XRPD (solid form) ([2]; 7 days, 40° C. / 75% RH): Form I
- XRPD (solid form) ([2]; T0): Form I
- HPLC Purity (A %) ([3]; 7 days, 2° C.): 98.01 A %
- HPLC Purity (A %) ([3]; 7 days, 25° C.): 97.94 A %
- HPLC Purity (A %) ([3]; 7 days, 40° C. / 75% RH): 95.29 A %
- HPLC Purity (A %) ([3]; T0): 97.84 A %

SMILES: Cc1cccnc1-c1ccc(-c2n[nH]c3ncc(-c4ccc5c(c4)CC[C@@H](N4C6COCC4C6)CC5)cc23)nc1 [Amorphous Compound (I) (freebase)]
- XRPD (solid form) [2, 5]: Amorphous
- XRPD (solid form) [2, 6]: Amorphous
- XRPD (solid form) [2, 7]: Amorphous
- XRPD (solid form) [2, 8]: Amorphous
- HPLC Purity (A %) [3, 5]: 97.68 A %
- HPLC Purity (A %) [3, 6]: 97.58 A %
- HPLC Purity (A %) [3, 7]: 96.88 A %
- HPLC Purity (A %) [3, 8]: 97.42 A %
- HPLC purity ([4]; 40° C., Day 0): 96.45 % purity
- HPLC purity ([4]; 40° C., Day 1): 96.12% purity
- HPLC purity ([4]; 40° C., Day 3): 95.87% purity
- HPLC purity ([4]; 40° C., Day 5): 95.00% purity
- HPLC purity ([4]; 60° C., Day 0): 96.45 % purity
- HPLC purity ([4]; 60° C., Day 1): 95.92% purity
- HPLC purity ([4]; 60° C., Day 3): 93.06% purity
- HPLC purity ([4]; 60° C., Day 5): 92.39% purity
- HPLC purity ([4]; 80° C., Day 0): 96.45 % purity
- HPLC purity ([4]; 80° C., Day 1): 95.01% purity
- HPLC purity ([4]; 80° C., Day 3): 91.87% purity
- HPLC purity ([4]; 80° C., Day 5): 89.86% purity
- HPLC purity ([4]; 100° C., Day 0): 96.45 % purity
- HPLC purity ([4]; 100° C., Day 1): 90.13% purity
- HPLC purity ([4]; 100° C., Day 3): 74.66% purity
- HPLC purity ([4]; 100° C., Day 5): 68.00% purity
- HPLC purity ([4]; r.t., Day 0): 96.45 % purity
- HPLC purity ([4]; r.t., Day 1): 96.23% purity
- HPLC purity ([4]; r.t., Day 3): 96.01% purity
- HPLC purity ([4]; r.t., Day 5): 96.03% purity
- Decomposition on storage (HPLC) ([4]; sealed vials, 5 days at 20° C., 40° C., 60° C., 80° C., 100° C.): underwent decomposition

SMILES: Cc1cccnc1-c1ccc(-c2n[nH]c3ncc(-c4ccc5c(c4)CC[C@@H](N4C6COCC4C6)CC5)cc23)nc1 [Chloride]
- HPLC Purity Loss on Day 14 (%) [1]: 1.5%
- HPLC Purity Loss (%) [1]: 6.6* %
